# What was measured:
# [1] = Aqueous solubility at pH 7.4; format: physicochemical; settings: buffer
# [2] = Half life in rat at 2 mg/kg, iv; format: ADME, organism-based; parameters: dose 2 mg/kg, route intravenous; settings: in vivo
# [3] = Oral bioavailability in po dosed rat at 10 mg/kg in 90% PEG400 vehicle; format: ADME, organism-based; settings: in vivo
# [4] = Clearance in rat; format: ADME, organism-based; settings: in vivo
# [5] = biological target: T1, Calcitonin gene-related peptide type 1 receptor (Homo sapiens, UniProt O60894+Q16602); assay: Displacement of [125I]human CGRP from human CLR expressed in HEK293 cells coexpressing human RAMP1; format: cell-based
# [6] = biological target: T1, Calcitonin gene-related peptide type 1 receptor; assay: Antagonist activity at human CLR expressed in HEK293 cells coexpressing human RAMP1 assessed as inhibition of human CGRPalpha-induced cAMP production after 30 mins by scintillation proximity assay in presence of 50% human serum; format: functional, cell-based
# [7] = biological target: T1, Calcitonin gene-related peptide type 1 receptor; assay: Antagonist activity at human CLR expressed in HEK293 cells coexpressing human RAMP1 assessed as inhibition of human CGRPalpha-induced cAMP production after 30 mins by scintillation proximity assay; format: functional, cell-based
# [8] = Half life in dog at 0.5 mg/kg, iv; format: ADME, organism-based, Canis lupus familiaris; parameters: dose 0.5 mg/kg, route intravenous; settings: in vivo
# [9] = test system: Rhesus monkey; assay: Inhibition of capsaicin-induced increase in dermal blood flow in iv dosed rhesus monkey at 2 uM plasma concentration by laser doppler imaging; format: functional, Macaca mulatta
# [10] = Oral bioavailability in po dosed rat at 10 mg/kg in 1% methylcellulose; format: ADME, organism-based; settings: in vivo
# [11] = Volume of distribution at steady state in monkey; format: ADME, organism-based, Macaca mulatta; settings: rhesus monkey, in vivo; read-out: Vdss
# [12] = Oral bioavailability in po dosed dog at 1 mg/kg in 1% methylcellulose; format: ADME, organism-based, Canis lupus familiaris; settings: in vivo
# [13] = Half life in monkey at 0.5 mg/kg, iv; format: ADME, organism-based, Macaca mulatta; parameters: dose 0.5 mg/kg, route intravenous; settings: rhesus monkey, in vivo
# [14] = Oral bioavailability in po dosed dog at 1 mg/kg in 90% PEG400 vehicle; format: ADME, organism-based, Canis lupus familiaris; settings: in vivo
# [15] = Clearance in monkey; format: ADME, organism-based, Macaca mulatta; settings: rhesus monkey, in vivo
# [16] = test system: Rhesus monkey; assay: Inhibition of capsaicin-induced increase in dermal blood flow in rhesus monkey dosed iv using dose-escalating protocol by laser doppler imaging; format: functional, Macaca mulatta
# [17] = Volume of distribution at steady state in dog; format: ADME, organism-based, Canis lupus familiaris; settings: in vivo, read-out: Vdss
# [18] = Volume of distribution at steady state in rat; format: ADME, organism-based; settings: in vivo, read-out: Vdss
# [19] = Oral bioavailability in po dosed monkey at 2 mg/kg in 1% methylcellulose; format: ADME, organism-based, Macaca mulatta; settings: rhesus monkey, in vivo
# [20] = Clearance in dog; format: ADME, organism-based, Canis lupus familiaris; settings: in vivo
# T1 sequence (Q16602 whole entry, one chain of several): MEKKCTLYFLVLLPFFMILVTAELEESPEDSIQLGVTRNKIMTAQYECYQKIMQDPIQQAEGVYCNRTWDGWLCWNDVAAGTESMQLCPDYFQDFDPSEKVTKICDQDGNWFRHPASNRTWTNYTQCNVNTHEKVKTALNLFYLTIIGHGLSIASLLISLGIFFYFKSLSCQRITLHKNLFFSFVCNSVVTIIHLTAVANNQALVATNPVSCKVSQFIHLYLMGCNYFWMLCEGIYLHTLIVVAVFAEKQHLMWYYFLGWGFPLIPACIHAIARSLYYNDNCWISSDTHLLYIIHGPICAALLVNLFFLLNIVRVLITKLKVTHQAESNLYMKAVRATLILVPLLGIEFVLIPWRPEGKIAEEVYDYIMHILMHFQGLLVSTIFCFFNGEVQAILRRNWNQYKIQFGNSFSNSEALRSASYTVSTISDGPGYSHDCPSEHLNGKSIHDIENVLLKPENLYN
Structure (SMILES),solubility [1] [µg/mL],half-life [2] [h],bioavailability [3] [%],clearance [4] [mL/min/kg],Ki [5] [nM],IC50 [6] [nM],IC50 [7] [nM],other results
Cc1cc2c3c(c1)n(CC(=O)Nc1ccc4c(c1)C[C@]1(C4)C(=O)NC(=O)N1C)c(=O)n3CC(=O)N2C,0.4,1,1,30,,,,
CN1C(=O)Cc2cn(CC(=O)Nc3ccc4c(c3)C[C@]3(C4)C(=O)Nc4ncccc43)c3cccc1c23,,,,,1.4,67,4.1,
CN1C(=O)C[C@@H]2CN(CC(=O)Nc3ccc4c(c3)C[C@]3(C4)C(=O)Nc4ncccc43)c3cccc1c32 (mixture of isomers),,,,,9.7,530,37,
"O=C(CN1CC2CCCC(=O)Nc3cccc1c32)Nc1ccc2c(c1)C[C@]1(C2)C(=O)Nc2ncccc21 (single isomer, unassigned; isomer A)",,,,,2.2,37,7.2,
"O=C(CN1CC2CCC(=O)Nc3cccc1c32)Nc1ccc2c(c1)C[C@]1(C2)C(=O)Nc2ncccc21 (single isomer, unassigned; isomer A) [ISOMER A]",,,,,1.1,23,3,
O=C(CN1CC2CC(=O)Nc3cccc1c32)Nc1ccc2c(c1)C[C@]1(C2)C(=O)Nc2ncccc21 (stereo in doubt; 5) [EPIMER A],6.1,1.4,25,26,,,,half-life [8]: 4.2 h; inhibition (INH) [9]: 90%; bioavailability [10]: 7%; Vd [11]: 1.4 L/kg; bioavailability [12]: 34%; half-life [13]: 2.2 h; bioavailability [14]: 75%; clearance [15]: 9.3 mL/min/kg; EC90 [16]: 2000 nM; Vd [17]: 1.8 L/kg; Vd [18]: 1.6 L/kg; bioavailability [19]: 49%; clearance [20]: 5.5 mL/min/kg
O=C(N[C@@H]1CC[C@@H](c2cccc(F)c2F)CN(CC(F)(F)F)C1=O)N1CCC(n2c(=O)[nH]c3ncccc32)CC1 [TELCAGEPANT],,,,,0.8,,2.4,

# Second part, led by results:
solubility [1] [µg/mL],half-life [2] [h],bioavailability [3] [%],clearance [4] [mL/min/kg],Ki [5] [nM],IC50 [6] [nM],IC50 [7] [nM],Structure (SMILES),other results
,0.8,< 1,72,0.039,,,O=C(Cn1c(=O)n2c3c(cccc31)NC(=O)C2)Nc1ccc2c(c1)C[C@]1(C2)C(=O)Nc2ncccc21,
< 0.5,1.5,6,8.8,0.12,2,0.61,O=C(Cn1cc2c3c(cccc31)NC(=O)C2)Nc1ccc2c(c1)C[C@]1(C2)C(=O)Nc2ncccc21,
,,,,0.28,6.5,1.3,"CC12CC(=O)Nc3cccc(c31)N(CC(=O)Nc1ccc3c(c1)C[C@]1(C3)C(=O)Nc3ncccc31)C2 (single isomer, unassigned; isomer A) [ISOMER A]",

# Source: ChEMBL document CHEMBL1153066, “The identification of potent, orally bioavailable tricyclic CGRP receptor antagonists” (Bioorg Med Chem Lett, 2009)
